Common to all, as to experiment: Kinase selectivity, DiscoverX scanMAX Kinase assay panel (% control)
What all share (type): binding

In experiment [1] the target is T1, kinases of the scanMAX Kinase assay panel (Homo sapiens, UniProt Q9UM73, C1156Y).
T1 construct: purchased DiscoverX Co. (contract measurement) scanMAX Kinase assay panel
The settings on record: ALK(C1156Y); 1 uM. An outline of the steps: (§1)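 Compounds were tested at 1 uM (in DMSO) against each panel kinase. % control was calculated as (compound − positive control)/(negative control − positive control)×100, where the positive control gives 0% and DMSO gives 100%. Activity toward a kinase was called at % control <35%.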

In experiment [2] the target is T2, kinases of the scanMAX Kinase assay panel (Homo sapiens, UniProt Q9HAZ1).
T2 construct: purchased DiscoverX Co. (contract measurement) scanMAX Kinase assay panel
The settings on record: CLK4; 1 uM. An outline of the steps: as §1

Experiment [3] concerns the target T3, kinases of the scanMAX Kinase assay panel (Homo sapiens, UniProt Q9UL54).
T3 construct: purchased DiscoverX Co. (contract measurement) scanMAX Kinase assay panel
T3 sequence (Q9UL54 1-1235): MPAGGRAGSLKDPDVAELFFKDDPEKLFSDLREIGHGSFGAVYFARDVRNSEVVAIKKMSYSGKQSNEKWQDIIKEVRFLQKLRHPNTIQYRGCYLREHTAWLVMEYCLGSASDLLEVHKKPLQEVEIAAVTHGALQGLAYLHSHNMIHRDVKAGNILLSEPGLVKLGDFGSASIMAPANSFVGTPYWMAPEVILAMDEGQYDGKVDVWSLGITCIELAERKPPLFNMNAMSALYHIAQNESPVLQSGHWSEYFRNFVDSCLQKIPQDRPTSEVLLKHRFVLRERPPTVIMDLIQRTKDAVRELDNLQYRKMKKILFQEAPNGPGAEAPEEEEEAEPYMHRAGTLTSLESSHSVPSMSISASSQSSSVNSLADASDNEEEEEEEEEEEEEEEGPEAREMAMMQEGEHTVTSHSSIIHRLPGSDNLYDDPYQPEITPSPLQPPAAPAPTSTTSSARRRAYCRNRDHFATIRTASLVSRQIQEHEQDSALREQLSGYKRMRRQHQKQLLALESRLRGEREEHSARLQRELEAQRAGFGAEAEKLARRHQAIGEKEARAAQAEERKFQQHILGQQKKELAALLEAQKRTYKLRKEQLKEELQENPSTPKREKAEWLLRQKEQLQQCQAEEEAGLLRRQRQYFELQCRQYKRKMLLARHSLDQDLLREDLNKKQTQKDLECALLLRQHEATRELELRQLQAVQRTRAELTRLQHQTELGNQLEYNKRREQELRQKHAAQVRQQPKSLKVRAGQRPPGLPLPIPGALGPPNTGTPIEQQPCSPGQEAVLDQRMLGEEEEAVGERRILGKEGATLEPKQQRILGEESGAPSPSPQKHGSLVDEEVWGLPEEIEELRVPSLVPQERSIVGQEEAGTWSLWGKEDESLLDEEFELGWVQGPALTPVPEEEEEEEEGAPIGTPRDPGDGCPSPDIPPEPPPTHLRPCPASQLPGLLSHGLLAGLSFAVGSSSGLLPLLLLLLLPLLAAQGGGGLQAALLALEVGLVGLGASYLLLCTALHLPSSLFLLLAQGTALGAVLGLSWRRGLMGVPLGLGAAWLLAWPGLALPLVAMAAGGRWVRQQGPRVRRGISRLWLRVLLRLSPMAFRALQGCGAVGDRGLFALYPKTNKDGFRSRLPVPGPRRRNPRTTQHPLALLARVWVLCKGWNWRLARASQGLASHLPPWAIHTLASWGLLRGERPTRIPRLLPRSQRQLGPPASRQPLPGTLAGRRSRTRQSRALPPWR
The settings on record: kinase TAOK2; 1 uM in DMSO. In short, it runs like this:
as §1

Experiment [4] has as its target T4, kinases of the scanMAX Kinase assay panel (Homo sapiens, UniProt Q8TF76).
T4 construct: purchased DiscoverX Co. (contract measurement) scanMAX Kinase assay panel
T4 sequence (Q8TF76 1-798): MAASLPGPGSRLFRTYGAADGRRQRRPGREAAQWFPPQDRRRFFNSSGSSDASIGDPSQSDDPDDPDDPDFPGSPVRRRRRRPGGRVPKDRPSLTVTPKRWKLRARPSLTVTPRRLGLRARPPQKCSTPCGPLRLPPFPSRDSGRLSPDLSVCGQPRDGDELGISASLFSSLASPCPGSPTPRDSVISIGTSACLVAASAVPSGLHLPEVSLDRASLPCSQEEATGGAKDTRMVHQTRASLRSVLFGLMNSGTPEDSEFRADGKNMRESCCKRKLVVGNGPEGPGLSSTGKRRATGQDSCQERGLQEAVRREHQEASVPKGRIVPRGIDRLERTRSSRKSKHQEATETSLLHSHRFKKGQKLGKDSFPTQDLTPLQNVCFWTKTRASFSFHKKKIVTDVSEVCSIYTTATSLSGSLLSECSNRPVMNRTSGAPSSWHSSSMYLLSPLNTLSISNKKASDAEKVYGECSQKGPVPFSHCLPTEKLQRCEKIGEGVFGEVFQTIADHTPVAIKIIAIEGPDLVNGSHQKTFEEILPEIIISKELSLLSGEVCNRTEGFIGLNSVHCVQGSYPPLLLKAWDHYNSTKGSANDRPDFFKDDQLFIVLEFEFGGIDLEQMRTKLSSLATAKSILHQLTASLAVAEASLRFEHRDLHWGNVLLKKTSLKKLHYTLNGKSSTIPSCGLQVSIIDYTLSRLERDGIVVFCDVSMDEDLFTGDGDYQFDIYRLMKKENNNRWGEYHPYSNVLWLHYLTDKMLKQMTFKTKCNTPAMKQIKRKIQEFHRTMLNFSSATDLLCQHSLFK
The settings on record: HASPIN; 1 uM. In short, it runs like this:
as §1

The target of experiment [5] is T5, kinases of the scanMAX Kinase assay panel (Homo sapiens, UniProt Q8N4C8).
T5 construct: purchased DiscoverX Co. (contract measurement) scanMAX Kinase assay panel
The settings on record: MINK; 1 uM. In short, it runs like this: as §1

Experiment [6] concerns the target T6, kinases of the scanMAX Kinase assay panel (Plasmodium falciparum, UniProt P62344).
T6 construct: purchased DiscoverX Co. (contract measurement) scanMAX Kinase assay panel
The settings on record: PFCDPK1(P. falciparum); 1 uM. An outline of the steps:
as §1

The target of experiment [7] is T7, kinases of the scanMAX Kinase assay panel (Homo sapiens, UniProt Q9Y4K4).
T7 construct: purchased DiscoverX Co. (contract measurement) scanMAX Kinase assay panel
The settings on record: MAP4K5; 1 uM. An outline of the steps:
as §1

In experiment [8] the target is T8, kinases of the scanMAX Kinase assay panel (Homo sapiens, UniProt Q9H422).
T8 construct: purchased DiscoverX Co. (contract measurement) scanMAX Kinase assay panel
The settings on record: HIPK3; 1 uM. An outline of the steps: as §1

Experiment [9] deals with T9, kinases of the scanMAX Kinase assay panel (Homo sapiens, UniProt P28482).
T9 construct: purchased DiscoverX Co. (contract measurement) scanMAX Kinase assay panel
The settings on record: ERK2; 1 uM. In short, it runs like this: as §1

Each structure is given as a SMILES string.

T5 sequence (Q8N4C8 whole entry): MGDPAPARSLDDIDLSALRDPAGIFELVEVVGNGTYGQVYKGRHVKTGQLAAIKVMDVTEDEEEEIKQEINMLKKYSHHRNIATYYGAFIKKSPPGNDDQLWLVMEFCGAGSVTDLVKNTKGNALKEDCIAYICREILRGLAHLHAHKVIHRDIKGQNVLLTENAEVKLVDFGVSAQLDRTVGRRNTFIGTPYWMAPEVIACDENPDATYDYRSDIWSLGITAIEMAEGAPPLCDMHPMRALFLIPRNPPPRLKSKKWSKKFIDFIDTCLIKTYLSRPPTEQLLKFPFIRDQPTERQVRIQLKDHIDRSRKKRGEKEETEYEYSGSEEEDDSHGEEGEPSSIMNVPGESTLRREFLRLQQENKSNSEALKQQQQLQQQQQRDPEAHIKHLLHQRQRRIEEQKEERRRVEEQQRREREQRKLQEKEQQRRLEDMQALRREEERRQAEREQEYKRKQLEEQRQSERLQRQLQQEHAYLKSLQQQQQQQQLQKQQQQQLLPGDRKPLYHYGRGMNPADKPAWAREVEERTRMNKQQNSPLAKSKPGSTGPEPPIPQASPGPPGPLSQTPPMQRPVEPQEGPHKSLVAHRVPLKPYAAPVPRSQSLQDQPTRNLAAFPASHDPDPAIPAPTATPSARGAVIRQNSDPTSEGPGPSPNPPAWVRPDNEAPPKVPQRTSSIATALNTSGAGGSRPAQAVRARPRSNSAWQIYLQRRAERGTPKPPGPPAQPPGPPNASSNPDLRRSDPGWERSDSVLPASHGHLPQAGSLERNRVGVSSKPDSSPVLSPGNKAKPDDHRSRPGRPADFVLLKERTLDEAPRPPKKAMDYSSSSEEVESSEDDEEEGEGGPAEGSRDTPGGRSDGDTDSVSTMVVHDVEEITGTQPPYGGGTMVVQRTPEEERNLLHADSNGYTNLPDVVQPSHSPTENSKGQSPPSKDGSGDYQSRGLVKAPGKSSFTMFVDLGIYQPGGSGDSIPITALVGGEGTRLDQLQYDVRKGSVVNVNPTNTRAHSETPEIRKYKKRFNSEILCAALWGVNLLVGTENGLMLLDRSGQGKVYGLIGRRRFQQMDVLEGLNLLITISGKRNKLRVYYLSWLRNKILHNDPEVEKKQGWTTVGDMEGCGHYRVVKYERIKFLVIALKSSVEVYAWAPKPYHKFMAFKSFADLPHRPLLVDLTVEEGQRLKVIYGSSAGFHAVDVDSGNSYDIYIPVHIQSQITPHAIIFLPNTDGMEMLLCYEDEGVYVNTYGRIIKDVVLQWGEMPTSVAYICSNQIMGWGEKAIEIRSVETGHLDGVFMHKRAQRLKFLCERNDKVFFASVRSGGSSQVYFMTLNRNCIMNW
T6 sequence (P62344 whole entry): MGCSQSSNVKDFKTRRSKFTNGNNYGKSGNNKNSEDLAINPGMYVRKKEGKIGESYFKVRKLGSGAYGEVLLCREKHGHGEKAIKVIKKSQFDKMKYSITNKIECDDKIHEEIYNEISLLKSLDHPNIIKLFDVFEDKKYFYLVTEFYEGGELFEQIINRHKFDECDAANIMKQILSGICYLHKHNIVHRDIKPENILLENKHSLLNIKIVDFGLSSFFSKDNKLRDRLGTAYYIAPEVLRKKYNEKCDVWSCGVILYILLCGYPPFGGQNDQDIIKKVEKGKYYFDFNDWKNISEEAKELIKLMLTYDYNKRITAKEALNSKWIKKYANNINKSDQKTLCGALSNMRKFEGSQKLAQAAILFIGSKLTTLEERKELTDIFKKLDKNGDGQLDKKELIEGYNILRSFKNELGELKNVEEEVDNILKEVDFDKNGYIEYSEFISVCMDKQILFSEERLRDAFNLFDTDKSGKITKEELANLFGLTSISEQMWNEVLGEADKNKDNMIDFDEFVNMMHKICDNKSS
T1 sequence (Q9UM73 19-1620 C1156Y): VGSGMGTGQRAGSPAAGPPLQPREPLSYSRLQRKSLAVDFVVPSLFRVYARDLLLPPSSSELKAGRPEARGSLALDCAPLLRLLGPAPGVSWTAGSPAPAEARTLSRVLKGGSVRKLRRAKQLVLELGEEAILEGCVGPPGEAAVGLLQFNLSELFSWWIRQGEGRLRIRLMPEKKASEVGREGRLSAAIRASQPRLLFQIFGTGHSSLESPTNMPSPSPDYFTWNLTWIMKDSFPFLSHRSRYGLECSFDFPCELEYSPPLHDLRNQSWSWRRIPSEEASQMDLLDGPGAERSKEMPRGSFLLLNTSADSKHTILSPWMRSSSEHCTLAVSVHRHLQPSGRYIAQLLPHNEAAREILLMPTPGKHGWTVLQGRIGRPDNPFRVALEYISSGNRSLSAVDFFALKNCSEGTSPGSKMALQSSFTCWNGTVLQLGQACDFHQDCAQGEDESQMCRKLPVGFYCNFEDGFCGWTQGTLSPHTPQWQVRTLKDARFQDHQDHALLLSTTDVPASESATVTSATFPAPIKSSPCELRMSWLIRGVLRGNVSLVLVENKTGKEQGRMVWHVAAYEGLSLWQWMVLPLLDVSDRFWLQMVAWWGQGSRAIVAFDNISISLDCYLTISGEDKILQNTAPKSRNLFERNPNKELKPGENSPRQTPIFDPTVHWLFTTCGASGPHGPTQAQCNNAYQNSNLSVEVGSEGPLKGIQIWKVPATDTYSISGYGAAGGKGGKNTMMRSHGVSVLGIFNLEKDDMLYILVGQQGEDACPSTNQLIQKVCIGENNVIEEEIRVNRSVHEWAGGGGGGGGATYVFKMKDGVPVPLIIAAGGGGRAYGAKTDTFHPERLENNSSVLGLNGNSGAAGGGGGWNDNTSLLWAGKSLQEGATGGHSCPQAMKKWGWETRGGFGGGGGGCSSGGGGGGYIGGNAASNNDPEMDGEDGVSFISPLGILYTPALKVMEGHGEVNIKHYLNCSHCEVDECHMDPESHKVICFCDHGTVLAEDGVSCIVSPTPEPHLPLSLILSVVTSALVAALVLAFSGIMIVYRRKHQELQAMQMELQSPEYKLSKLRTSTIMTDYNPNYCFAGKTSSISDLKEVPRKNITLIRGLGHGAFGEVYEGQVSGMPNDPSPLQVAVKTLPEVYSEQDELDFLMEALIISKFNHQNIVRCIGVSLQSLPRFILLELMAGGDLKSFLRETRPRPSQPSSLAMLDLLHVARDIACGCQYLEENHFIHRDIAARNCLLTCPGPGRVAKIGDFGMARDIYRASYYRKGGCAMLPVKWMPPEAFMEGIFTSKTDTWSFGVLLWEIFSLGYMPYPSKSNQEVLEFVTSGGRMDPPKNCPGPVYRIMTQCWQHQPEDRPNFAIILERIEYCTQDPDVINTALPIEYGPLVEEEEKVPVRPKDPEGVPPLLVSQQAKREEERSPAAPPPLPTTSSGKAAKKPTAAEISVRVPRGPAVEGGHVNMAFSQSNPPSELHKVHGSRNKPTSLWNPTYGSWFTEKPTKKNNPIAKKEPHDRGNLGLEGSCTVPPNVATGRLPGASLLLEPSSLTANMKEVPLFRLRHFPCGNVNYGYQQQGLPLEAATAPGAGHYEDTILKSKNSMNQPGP
T9 sequence (P28482 whole entry): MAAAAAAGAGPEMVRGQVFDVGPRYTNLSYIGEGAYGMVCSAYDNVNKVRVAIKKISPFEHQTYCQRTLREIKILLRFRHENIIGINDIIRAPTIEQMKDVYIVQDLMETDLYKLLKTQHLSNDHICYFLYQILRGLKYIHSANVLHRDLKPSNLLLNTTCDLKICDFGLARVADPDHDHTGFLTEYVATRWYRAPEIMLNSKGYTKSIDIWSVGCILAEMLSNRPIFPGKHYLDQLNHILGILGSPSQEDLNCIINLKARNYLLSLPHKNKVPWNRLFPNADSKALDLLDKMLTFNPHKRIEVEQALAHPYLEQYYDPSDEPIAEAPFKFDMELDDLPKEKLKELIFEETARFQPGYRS
T7 sequence (Q9Y4K4 whole entry): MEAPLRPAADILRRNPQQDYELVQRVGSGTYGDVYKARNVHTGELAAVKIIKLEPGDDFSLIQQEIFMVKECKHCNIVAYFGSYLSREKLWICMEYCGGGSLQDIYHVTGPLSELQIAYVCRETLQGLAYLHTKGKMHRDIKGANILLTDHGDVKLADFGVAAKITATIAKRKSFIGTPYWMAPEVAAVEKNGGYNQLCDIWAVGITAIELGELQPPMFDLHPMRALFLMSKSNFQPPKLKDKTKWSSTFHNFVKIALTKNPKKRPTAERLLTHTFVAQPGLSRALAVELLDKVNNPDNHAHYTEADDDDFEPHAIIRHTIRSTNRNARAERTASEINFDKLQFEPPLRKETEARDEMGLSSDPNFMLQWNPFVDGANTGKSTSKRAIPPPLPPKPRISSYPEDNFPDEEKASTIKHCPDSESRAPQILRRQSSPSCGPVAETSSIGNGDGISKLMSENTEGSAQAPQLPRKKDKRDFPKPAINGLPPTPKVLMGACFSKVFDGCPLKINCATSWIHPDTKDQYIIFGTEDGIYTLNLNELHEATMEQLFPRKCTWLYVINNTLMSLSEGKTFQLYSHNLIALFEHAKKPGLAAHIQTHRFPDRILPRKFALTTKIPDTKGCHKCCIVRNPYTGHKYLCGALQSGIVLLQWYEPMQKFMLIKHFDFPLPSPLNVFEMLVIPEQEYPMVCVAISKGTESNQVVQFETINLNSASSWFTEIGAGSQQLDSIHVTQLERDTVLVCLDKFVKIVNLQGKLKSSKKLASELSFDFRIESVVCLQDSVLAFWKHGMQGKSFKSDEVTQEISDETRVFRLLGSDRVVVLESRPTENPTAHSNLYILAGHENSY

With `CNc1nc(Nc2ccc(C(=O)N3CCOCC3)cc2OC)nc2[nH]cc(C#N)c12` [Example 1, 2-((2-methoxy-4-(morpholine-4-carbonyl)phenyl)amino)-4-(methylamino)-7H-pyrrolo[2,3-d]pyrimidine-5-carbonitrile], the remaining binding at 1 µM in experiment [1] is 9.3%; in experiment [2] it was 3.4%; in [3], 78%; in experiment [4] it was 63%; in experiment [5], 50%; in [6], 87%. In addition, the remaining binding at 1 µM in [7] stood at 89%; in [8] it was 64%; in experiment [9], 86%.
For `CC1(Nc2nc(Nc3cnn([C@H]4CCN(C5COC5)C[C@@H]4F)c3Cl)nc3[nH]cc(C#N)c23)CC1` [Example 52, 2-((5-chloro-1-((3S,4S)-3-fluoro-1-(oxetane-3-yl)piperidine-4-yl)-1H-pyrazole-4-yl)amino)((1-methylcyclopropyl)amino)-7H-pyrrolo[2,3-d]pyrimidine-5-carbonitrile], the remaining binding at 1 µM was 0.8% in [1]; 1.4% in experiment [2]; 40% in [3]; 100% in experiment [4]; 6.4% in experiment [5]; 52% in experiment [6]. Besides, the remaining binding at 1 µM in [7] came to 30%; in experiment [8] it was 6.2%; in experiment [9], 54%.
Regarding `CCNc1nc(Nc2ccc(C(=O)N3CCC(N4CCOCC4)CC3)cc2OC)nc2[nH]cc(C(F)(F)F)c12` [Example 104, (4-((4-(ethylamino)-5-(trifluoromethyl)-7H-pyrrolo[2,3-d]pyrimidine-2-yl)amino)-3-methoxyphenyl)(4-morpholinopiperidine-1-yl)methanone], the remaining binding at 1 µM in experiment [1] is 16%; in [2], 4.1%; in [3], 87%; in experiment [4] it was 100%; in experiment [5] it was 91%; in [6], 100%. Besides, the remaining binding at 1 µM in [7] was 100%; in experiment [8], 16%; in experiment [9] it was 100%.
